From patent US8609686B2, “Substituted azabicyclic compounds and the use thereof” (Bayer Intellectual Property GmbH, priority 2007, dated 2013) come the findings set out here.

What all share (assay type): cell-based
One test concerns the target T1, adenosine A2a receptor (Homo sapiens, UniProt P29274).
T1 construct: expressed in transfected cells; host or cells: CHO (Chinese Hamster Ovary)
Put plainly: Indirect determination of adenosine agonism by way of gene expression (cAMP-dependent luciferase reporter), A2a cells. The note with it: stably transfected CHO cells; 50% of the maximum stimulation of luciferase. An excerpt:
(§1) B-1. Indirect determination of the adenosine agonism by way of gene expression Cells of the CHO (Chinese Hamster Ovary) permanent line are transfected stably with the cDNA for the adenosine receptor subtypes A1, A2a and A2b. The adenosine A1 receptors are coupled to the adenylate cyclase by way of Gi proteins, while the adenosine A2a and A2b receptors are coupled by way of Gs proteins. In correspondence with this, the formation of cAMP in the cell is inhibited or stimulated, respectively. After that, expression of the luciferase is modulated by way of a cAMP-dependent promoter. The luciferase test is optimized, with the aim of high sensitivity and reproducibility, low variance and good suitability for implementation on a robot system, by varying several test parameters, such as cell density, duration of the growth phase and the test incubation, forskolin concentration and medium composition. The following test protocol is used for pharmacologically characterizing cells and for the robot-assisted substance screening:
(§2) The stock cultures are grown, at 37° C. and under 5% CO2, in DMEM/F12 medium containing 10% FCS (fetal calf serum) and in each case split 1:10 after 2-3 days. Test cultures are seeded in 384-well plates with 2000 cells per well and grown at 37° C. for approx. 48 hours. The medium is then replaced with a physiological sodium chloride solution (130 mM sodium chloride, 5 mM potassium chloride, 2 mM calcium chloride, 20 mM HEPES, 1 mM magnesium chloride hexahydrate, 5 mM sodium bicarbonate, pH 7.4). The substances to be tested, which are dissolved in DMSO, are pipetted into the test cultures (maximum final concentration of DMSO in the test mixture: 0.5%) in a dilution series of from 5×10^−11M to 3×10^−6M (final concentration). 10 minutes later, forskolin is added to the A1 cells and all the cultures are subsequently incubated at 37° C. for four hours. After that, 35 μl of a solution which is composed of 50% lysis reagent (30 mM disodium hydrogenphosphate, 10% glycerol, 3% TritonX100, 25 mM TrisHCl, 2 mM dithiotreitol (DTT), pH 7.8) and 50% luciferase substrate solution (2.5 mM ATP, 0.5 mM luciferin, 0.1 mM coenzyme A, 10 mM tricine, 1.35 mM magnesium sulfate, 15 mM DTT, pH 7.8) are added to the test cultures, which are shaken for approx. 1 minute and the luciferase activity is measured using a camera system. The EC50 values are determined, i.e., the concentrations at which 50% of the luciferase response is inhibited in the case of the A1 cell, and, respectively, 50% of the maximum stimulation with the corresponding substance is achieved in the case of the A2b and A2a cells. […] Pharmacol., 357, 1-9 (1998)).
(§3) Table 1 below lists the EC50 values of representative working examples for the receptor stimulation on adenosine A1, A2a and A2b receptor subtypes: […]

For the next test, the target named is T2, adenosine A1 receptor (Homo sapiens, UniProt P30542).
T2 construct: expressed in transfected cells; host or cells: CHO (Chinese Hamster Ovary)
T2 sequence (P30542 1-326): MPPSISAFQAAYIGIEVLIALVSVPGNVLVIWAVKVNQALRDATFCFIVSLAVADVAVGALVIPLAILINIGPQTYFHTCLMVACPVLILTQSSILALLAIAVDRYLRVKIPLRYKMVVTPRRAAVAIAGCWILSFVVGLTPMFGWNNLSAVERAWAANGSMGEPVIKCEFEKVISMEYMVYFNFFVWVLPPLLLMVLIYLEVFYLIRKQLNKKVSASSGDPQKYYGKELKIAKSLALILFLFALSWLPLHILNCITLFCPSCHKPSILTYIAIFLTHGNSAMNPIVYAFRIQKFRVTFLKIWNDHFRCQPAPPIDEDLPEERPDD
Nature of the test: Indirect determination of adenosine agonism by way of gene expression (cAMP-dependent luciferase reporter), A1 cells. The note with it: stably transfected CHO cells; 1 μM forskolin; concentration at which 50% of the luciferase response is inhibited.
Source text: as §1, §2, §3

A further test concerns the target T3, adenosine A2b receptor (Homo sapiens, UniProt P29275).
T3 construct: expressed in transfected cells; host or cells: CHO (Chinese Hamster Ovary)
T3 sequence (P29275 1-332): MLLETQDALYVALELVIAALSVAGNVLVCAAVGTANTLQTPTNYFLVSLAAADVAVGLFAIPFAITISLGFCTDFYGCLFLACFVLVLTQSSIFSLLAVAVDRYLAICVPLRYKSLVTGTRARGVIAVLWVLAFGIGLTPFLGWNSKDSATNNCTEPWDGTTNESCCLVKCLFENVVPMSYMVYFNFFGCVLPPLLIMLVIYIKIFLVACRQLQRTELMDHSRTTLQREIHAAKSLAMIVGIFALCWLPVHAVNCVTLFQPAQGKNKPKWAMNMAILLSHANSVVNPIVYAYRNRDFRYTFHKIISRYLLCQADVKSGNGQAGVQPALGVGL
Put plainly: Indirect determination of adenosine agonism by way of gene expression (cAMP-dependent luciferase reporter), A2b cells. The note with it: stably transfected CHO cells; 50% of the maximum stimulation of luciferase.
Source text: as §1, §2, §3

Structures are written as SMILES.

T1 sequence (P29274 whole entry): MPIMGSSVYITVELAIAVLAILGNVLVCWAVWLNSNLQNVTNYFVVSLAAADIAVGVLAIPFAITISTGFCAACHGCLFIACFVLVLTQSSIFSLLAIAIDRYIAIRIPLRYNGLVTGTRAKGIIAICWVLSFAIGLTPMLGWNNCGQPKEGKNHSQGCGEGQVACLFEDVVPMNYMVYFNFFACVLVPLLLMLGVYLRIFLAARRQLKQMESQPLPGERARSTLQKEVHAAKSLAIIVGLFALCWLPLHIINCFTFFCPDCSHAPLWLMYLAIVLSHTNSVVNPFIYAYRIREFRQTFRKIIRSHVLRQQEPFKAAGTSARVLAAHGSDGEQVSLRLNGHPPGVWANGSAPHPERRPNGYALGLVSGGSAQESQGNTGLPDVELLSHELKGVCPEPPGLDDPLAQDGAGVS

Take `COC(=O)c1c(N)c2c(-c3ccc(OCCO)cc3)c(C#N)c(SCc3csc(-c4ccc(Cl)cc4)n3)nc2n1C` [Example 1, Methyl 3-amino-6-({[2-(4-chlorophenyl)-1,3-thiazol-4-yl]methyl}thio)-5-cyano-4-[4-(2-hydroxyethoxy)phenyl]-1-methyl-1H-pyrrolo[2,3-b]pyridine-2-carboxylate]: the EC50 at adenosine A2a receptor is 170 nM; at adenosine A1 receptor it was 0.8 nM; on adenosine A2b receptor it was 550 nM.
The matching figures for `COC(=O)Cn1c(C(=O)OC)c(N)c2c(-c3ccc(OCCO)cc3)c(C#N)c(SCc3csc(-c4ccc(Cl)cc4)n3)nc21` [Example 2]: 150 nM, 1.7 nM and 1540 nM.
The matching figures for `COC(=O)c1c(N)c2c(-c3ccccc3)c(C#N)c(SCc3csc(-c4ccc(Cl)cc4)n3)nc2n1C` [Example 3]: greater than 3000 nM, 5.3 nM and greater than 3000 nM.
As to `COC(=O)c1c(N)c2c(-c3ccc(OCCO)cc3)c(C#N)c(SCc3cccc(C#N)c3)nc2n1C` [Example 4], the results for the 50% effective concentration (EC50) on adenosine A2a receptor, at adenosine A1 receptor and at adenosine A2b receptor were 73 nM, 3 nM and 320 nM, respectively.
For the molecule `COC(=O)c1c(N)c2c(-c3ccc(OCCO)cc3)c(C#N)c(SCc3ccc(OC)nc3)nc2n1C` [Example 5], the EC50 on adenosine A2a receptor came to 200 nM; at adenosine A1 receptor, 1.5 nM; at adenosine A2b receptor, 1000 nM.
Turning to `Cn1c(C(N)=O)c(N)c2c(-c3ccc(OCCO)cc3)c(C#N)c(SCc3csc(-c4ccc(Cl)cc4)n3)nc21` [Example 6], the EC50 at adenosine A2a receptor was 1120 nM; on adenosine A1 receptor, 0.3 nM; on adenosine A2b receptor it was greater than 3000 nM.
As for `CNC(=O)c1c(N)c2c(-c3ccc(OCCO)cc3)c(C#N)c(SCc3csc(-c4ccc(Cl)cc4)n3)nc2n1C` [Example 7], the results for the EC50 on adenosine A2a receptor, on adenosine A1 receptor and at adenosine A2b receptor were 350 nM, 5 nM and 660 nM, respectively.
With `COC(=O)c1c(N)c2c(-c3ccc(OC[C@@H](O)CO)cc3)c(C#N)c(SCc3coc(-c4ccc(Cl)cc4)n3)nc2n1C` [Example 11], the EC50 was 600 nM at adenosine A2a receptor, 14 nM at adenosine A1 receptor and greater than 3000 nM at adenosine A2b receptor.
Regarding `COC(=O)c1c(N)c2c(-c3ccc(OC[C@@H](O)CO)cc3)c(C#N)c(SCc3csc(-c4ccc(Cl)cc4)n3)nc2n1C` [Example 12], the figures for the EC50 on adenosine A2a receptor, at adenosine A1 receptor and on adenosine A2b receptor were 1600 nM, 11 nM and greater than 3000 nM, respectively.
Take `COC(=O)c1c(N)c2c(-c3ccc(OCCO)cc3)c(C#N)c(SCc3cccc(C(N)=O)c3)nc2n1C` [Example 15, Methyl 3-amino-6-[(3-carbamoylbenzyl)thio]-5-cyano-4-[4-(2-hydroxyethoxy)phenyl]-1-methyl-1H-pyrrolo[2,3-b]pyridine-2-carboxylate]: the EC50 on adenosine A2a receptor is 440 nM; at adenosine A1 receptor, 3.7 nM; on adenosine A2b receptor it was 1330 nM.
With `Cn1c(C(N)=O)c(N)c2c(-c3ccc(OCCO)cc3)c(C#N)c(SCc3cccc(C(N)=O)c3)nc21` [Example 16, 3-Amino-6-[(3-carbamoylbenzyl)thio]-5-cyano-4-[4-(2-hydroxyethoxy)phenyl]-1-methyl-1H-pyrrolo[2,3-b]pyridine-2-carboxamide], the half-maximal effective concentration (EC50) on adenosine A2a receptor came out at 330 nM; on adenosine A1 receptor, 4.9 nM; at adenosine A2b receptor, 760 nM.
Take `COC(=O)c1[nH]c2nc(SCc3csc(-c4ccc(Cl)cc4)n3)c(C#N)c(-c3ccc(OCCO)cc3)c2c1N` [Example 17, Methyl 3-amino-6-({[2-(4-chlorophenyl)-1,3-thiazol-4-yl]methyl}thio)-5-cyano-4-[4-(2-hydroxyethoxy)phenyl]-1H-pyrrolo[2,3-b]pyridine-2-carboxylate]: the results for the EC50 at adenosine A2a receptor, on adenosine A1 receptor and on adenosine A2b receptor were 680 nM, 3.7 nM and greater than 3000 nM, respectively.
As for `N#Cc1c(SCc2csc(-c3ccc(Cl)cc3)n2)nc2[nH]nc(N)c2c1-c1ccc(OCCO)cc1` [Example 21, 3-Amino-6-({[2-(4-chlorophenyl)-1,3-thiazol-4-yl]methyl}sulfanyl)-4-[4-(2-hydroxyethoxy)phenyl]-1H-pyrazolo[3,4-b]pyridine-5-carbonitrile], the EC50 was greater than 3000 nM on adenosine A2a receptor, 10 nM on adenosine A1 receptor and greater than 3000 nM at adenosine A2b receptor.
